# Measured values: ChEMBL document CHEMBL2157932, “Synthesis and pharmacological evaluation of carbamic acid 1-phenyl-3-(4-phenyl-piperazine-1-yl)-propyl ester derivatives as new analgesic agents” (Bioorg Med Chem Lett, 2012)
# Active and inactive are the calls of the source. The calls are words filed in the database; no cut-off is given here.
# Assays:
# [1] = test system: Rattus norvegicus; experiment: Antiinflammatory activity in po dosed rat persistent inflammatory pain model assessed as inhibition of carrageenan-induced mechanical hyperalgesia; format: functional
# [2] = Tmax in rat at 15 mg/kg, po; format: ADME, organism-based; design: dose 15 mg/kg, route oral; settings: in vivo
# [3] = Oral bioavailability in rat at 15 mg/kg; format: ADME, organism-based; settings: in vivo
# [4] = Half life in rat at 15 mg/kg, iv; format: ADME, organism-based; design: dose 15 mg/kg, route intravenous; settings: in vivo
# [5] = molecular target: Sodium-dependent noradrenaline transporter (Homo sapiens) (UniProt P23975); experiment: Binding affinity to norepinephrine transporter at 10 uM
# Sequence of Sodium-dependent noradrenaline transporter (Homo sapiens) (P23975 whole entry): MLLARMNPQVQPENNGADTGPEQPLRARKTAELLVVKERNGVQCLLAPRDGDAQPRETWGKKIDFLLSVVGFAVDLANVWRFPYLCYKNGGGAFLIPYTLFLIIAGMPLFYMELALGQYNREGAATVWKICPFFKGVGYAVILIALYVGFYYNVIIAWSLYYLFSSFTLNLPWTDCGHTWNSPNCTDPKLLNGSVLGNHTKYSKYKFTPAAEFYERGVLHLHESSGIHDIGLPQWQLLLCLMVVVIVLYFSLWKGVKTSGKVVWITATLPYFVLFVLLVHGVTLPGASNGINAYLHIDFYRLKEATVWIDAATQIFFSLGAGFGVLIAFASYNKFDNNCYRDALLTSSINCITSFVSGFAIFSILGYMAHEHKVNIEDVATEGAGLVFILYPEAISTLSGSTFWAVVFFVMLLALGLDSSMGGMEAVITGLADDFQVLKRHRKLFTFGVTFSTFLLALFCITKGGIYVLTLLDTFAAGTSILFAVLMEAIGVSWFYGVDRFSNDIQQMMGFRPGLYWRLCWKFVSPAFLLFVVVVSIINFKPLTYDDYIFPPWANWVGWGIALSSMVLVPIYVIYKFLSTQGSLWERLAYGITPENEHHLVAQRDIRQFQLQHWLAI
# [6] = test system: Mus musculus; experiment: Neurotoxicity in mouse assessed as myoreflexation or sedation at 139 mg/kg, po by rotarod test; format: toxicity, organism-based; design: dose 139 mg/kg, route oral; settings: in vivo
# [7] = test system: Mus musculus; experiment: Inhibition of DOI-induced head twitches in mouse at 1 mg/kg, ip; format: functional; settings: route intraperitoneal
# [8] = molecular target: 5-hydroxytryptamine receptor 2A (Homo sapiens, UniProt P28223); experiment: Antagonist activity at 5HT2A receptor; format: functional
# Sequence of 5-hydroxytryptamine receptor 2A (Homo sapiens, UniProt P28223) (P28223 whole entry): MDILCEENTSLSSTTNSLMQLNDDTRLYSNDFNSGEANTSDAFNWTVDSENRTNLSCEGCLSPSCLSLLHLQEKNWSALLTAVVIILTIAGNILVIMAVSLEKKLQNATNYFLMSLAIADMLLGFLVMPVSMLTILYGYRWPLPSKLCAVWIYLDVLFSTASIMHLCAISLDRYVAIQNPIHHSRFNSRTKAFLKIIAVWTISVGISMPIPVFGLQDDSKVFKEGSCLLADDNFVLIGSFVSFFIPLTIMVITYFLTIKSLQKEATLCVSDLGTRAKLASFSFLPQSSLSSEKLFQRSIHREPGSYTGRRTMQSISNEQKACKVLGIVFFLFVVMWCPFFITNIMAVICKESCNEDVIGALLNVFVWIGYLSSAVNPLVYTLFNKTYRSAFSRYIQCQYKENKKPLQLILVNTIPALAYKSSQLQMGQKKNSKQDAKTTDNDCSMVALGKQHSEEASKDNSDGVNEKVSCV
# [9] = Cmax in rat at 15 mg/kg, iv; format: ADME, organism-based; design: dose 15 mg/kg, route intravenous; settings: in vivo
# [10] = organism: Mus musculus; experiment: Antinociceptive activity in mouse by hot plate test in presence of naloxone; format: functional, organism-based
# [11] = Half life in human liver microsomes by LC/MS/MS; format: ADME, Microsome
# [12] = Cmax in rat at 15 mg/kg, po; format: ADME, organism-based; design: dose 15 mg/kg, route oral; settings: in vivo
# [13] = test system: Mus musculus; experiment: Inhibition of DOI-induced head twitches in ip dosed mouse; format: functional, organism-based
# [14] = test system: Mus musculus; experiment: Antinociceptive activity in po dosed mouse by hot plate test; format: functional
# [15] = test system: Mus musculus; experiment: Analgesic activity in po dosed mouse assessed as inhibition of acetic acid-induced writhing response administered 0.5 to 1 hr before acetic acid challenge; format: functional
# [16] = test system: Mus musculus; experiment: Inhibition of 5-hydroxytryptophan-induced head twitches in mouse at 3 mg/kg, ip; format: functional; settings: route intraperitoneal
# [17] = Volume of distribution at steady state in rat at 15 mg/kg, iv; format: ADME, organism-based; design: dose 15 mg/kg, route intravenous; settings: in vivo, read-out: Vdss
# [18] = Binding affinity to prostaglandin synthetase at 10 uM
# [19] = molecular target: T1, 5-hydroxytryptamine receptor 1A (Rattus norvegicus, UniProt P19327); experiment: Displacement of [3H]-8-OH-DPAT from 5HT1A receptor in rat hippocampus; format: tissue-based
# T1 sequence (P19327 whole entry): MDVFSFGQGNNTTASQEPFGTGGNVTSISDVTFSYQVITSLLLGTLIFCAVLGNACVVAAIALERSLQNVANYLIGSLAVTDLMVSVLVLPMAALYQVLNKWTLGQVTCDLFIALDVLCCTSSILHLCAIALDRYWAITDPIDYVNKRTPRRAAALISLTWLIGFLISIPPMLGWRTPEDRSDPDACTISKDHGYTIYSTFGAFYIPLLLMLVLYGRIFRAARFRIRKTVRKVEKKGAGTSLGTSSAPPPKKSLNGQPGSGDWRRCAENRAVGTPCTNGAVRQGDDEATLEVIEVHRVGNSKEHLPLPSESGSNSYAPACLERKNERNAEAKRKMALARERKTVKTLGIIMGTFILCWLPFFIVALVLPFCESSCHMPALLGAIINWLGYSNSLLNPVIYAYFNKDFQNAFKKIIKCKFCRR
# [20] = Clearance in rat at 15 mg/kg, iv; format: ADME, organism-based; design: dose 15 mg/kg, route intravenous; settings: in vivo
# [21] = AUCall in rat at 15 mg/kg, iv; format: ADME, organism-based; design: dose 15 mg/kg, route intravenous; settings: plasma
# [22] = Binding affinity to opioid receptor at 10 uM
# [23] = test system: Mus musculus; experiment: Analgesic activity in ip dosed mouse assessed as inhibition of acetic acid-induced writhing response administered 0.5 to 1 hr before acetic acid challenge; format: functional
# [24] = molecular target: Sigma non-opioid intracellular receptor 1 (Homo sapiens, UniProt Q99720); experiment: Binding affinity to Sigma1
# Sequence of Sigma non-opioid intracellular receptor 1 (Q99720 whole entry): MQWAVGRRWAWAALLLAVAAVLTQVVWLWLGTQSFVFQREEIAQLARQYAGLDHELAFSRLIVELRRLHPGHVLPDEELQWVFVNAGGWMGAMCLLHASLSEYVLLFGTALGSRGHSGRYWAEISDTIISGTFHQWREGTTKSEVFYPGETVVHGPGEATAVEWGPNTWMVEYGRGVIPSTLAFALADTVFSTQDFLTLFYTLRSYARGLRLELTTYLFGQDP
# [25] = test system: Mus musculus; experiment: Inhibition of 5-hydroxytryptophan-induced head twitches in mouse at 10 mg/kg, ip; format: functional; settings: route intraperitoneal
# [26] = AUCall in rat at 15 mg/kg, po; format: ADME, organism-based; design: dose 15 mg/kg, route oral; settings: plasma
# [27] = test system: Mus musculus; experiment: Inhibition of DOI-induced head twitches in mouse at 3 mg/kg, ip; format: functional; settings: route intraperitoneal
# [28] = Half life in rat at 15 mg/kg, po; format: ADME, organism-based; design: dose 15 mg/kg, route oral; settings: in vivo
# [29] = test system: Mus musculus; experiment: Inhibition of DOI-induced head twitches in mouse at 0.3 mg/kg, ip; format: functional; settings: route intraperitoneal
# [30] = molecular target: 5-hydroxytryptamine receptor 2B (Homo sapiens, UniProt P41595); experiment: Binding affinity to 5HT2B receptor
# Sequence of 5-hydroxytryptamine receptor 2B (P41595 whole entry): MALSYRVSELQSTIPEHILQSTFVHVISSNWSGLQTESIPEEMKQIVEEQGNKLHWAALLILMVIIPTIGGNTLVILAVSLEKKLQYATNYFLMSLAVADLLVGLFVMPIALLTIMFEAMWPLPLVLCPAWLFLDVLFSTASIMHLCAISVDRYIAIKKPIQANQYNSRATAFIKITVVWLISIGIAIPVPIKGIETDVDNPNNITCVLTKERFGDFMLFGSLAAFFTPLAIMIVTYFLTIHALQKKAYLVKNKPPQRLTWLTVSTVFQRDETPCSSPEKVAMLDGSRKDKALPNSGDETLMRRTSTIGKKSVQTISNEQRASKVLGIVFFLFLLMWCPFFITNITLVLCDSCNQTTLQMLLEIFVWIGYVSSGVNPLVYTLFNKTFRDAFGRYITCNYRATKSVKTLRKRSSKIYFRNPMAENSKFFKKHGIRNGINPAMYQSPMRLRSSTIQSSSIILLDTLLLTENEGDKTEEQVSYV
# [31] = test system: Mus musculus; experiment: Neurotoxicity in mouse assessed as myoreflexation or sedation at 52.7 mg/kg, ip by rotarod test; format: toxicity, organism-based; design: dose 52.7 mg/kg, route intraperitoneal; settings: in vivo
# [32] = molecular target: 5-hydroxytryptamine receptor 2A (Rattus norvegicus, UniProt P14842); experiment: Displacement of [3H]-ketanserin from 5HT2A receptor in rat cortical membrane; format: cell membranes
# Sequence of 5-hydroxytryptamine receptor 2A (Rattus norvegicus, UniProt P14842) (P14842 whole entry): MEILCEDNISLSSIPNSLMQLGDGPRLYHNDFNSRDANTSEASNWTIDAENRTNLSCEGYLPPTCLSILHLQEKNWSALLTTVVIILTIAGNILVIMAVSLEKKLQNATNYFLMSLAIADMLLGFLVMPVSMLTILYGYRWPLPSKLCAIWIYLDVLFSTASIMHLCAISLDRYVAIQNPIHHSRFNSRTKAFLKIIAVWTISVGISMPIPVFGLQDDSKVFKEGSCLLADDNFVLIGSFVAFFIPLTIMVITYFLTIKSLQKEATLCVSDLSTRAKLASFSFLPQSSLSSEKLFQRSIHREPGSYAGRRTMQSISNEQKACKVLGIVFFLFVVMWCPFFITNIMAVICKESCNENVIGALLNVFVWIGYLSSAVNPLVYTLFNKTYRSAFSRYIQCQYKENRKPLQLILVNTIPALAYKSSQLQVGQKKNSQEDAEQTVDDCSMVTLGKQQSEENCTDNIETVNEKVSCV
# [33] = Half life in rat liver microsomes by LC/MS/MS; format: ADME, Microsome
compound,measurement,setting,value
COc1ccc(N2CCN(CC[C@@H](OC(N)=O)c3ccccc3)CC2)cc1,Activity,[1],Dose-dependent effect
same,ED50,[1],0.68 mg/kg
same,Tmax,[2],1.1 h
same,bioavailability,[3],73.8%
same,half-life,[4],1.8 h
same,inhibition,[5],inactive
same,Activity,[6],Non-toxic
same,inhibition in vivo at 1 mg/kg,[7],61.4%
same,IC50,[8],5.8 µM
same,Cmax,[9],9950 ng/mL
same,Activity,[10],Active
same,half-life,[11],5.32 h
same,Cmax,[12],2200 ng/mL
same,inhibition,[13],Dose-dependent effect
same,ED50,[14],2.86 mg/kg
same,ED50,[15],2.65 mg/kg
same,inhibition in vivo at 3 mg/kg,[16],46.2%
same,Vd,[17],1.77 L/kg
same,inhibition,[18],inactive
same,IC50,[19],8.82 µM
same,clearance,[20],14.1 mL/min/kg
same,AUC,[21],17800 ng·h/mL
same,inhibition,[22],inactive
same,ED50,[23],0.94 mg/kg
same,Ki,[24],0.392 µM
same,inhibition in vivo at 10 mg/kg,[25],100%
same,AUC,[26],13200 ng·h/mL
same,inhibition in vivo at 3 mg/kg,[27],89.3%
same,half-life,[28],2.6 h
same,inhibition in vivo at 0.3 mg/kg,[29],40%
same,Ki,[30],0.164 µM
same,Activity,[31],Non-toxic
same,IC50,[32],5.77 µM
same,half-life,[33],1.52 h
